The target of this test is CK2A1 (CK2α/β) (Homo sapiens, UniProt P68400). The test can be described thus: CK2 kinase assay, CK2A1 (CK2α/β). It counts as biochemical. The conditions noted are these: Table A; read-out: CK2A1 (CK2α/β) (IC50).
CK2A1 (CK2α/β), sequence (P68400 whole entry, species assumed): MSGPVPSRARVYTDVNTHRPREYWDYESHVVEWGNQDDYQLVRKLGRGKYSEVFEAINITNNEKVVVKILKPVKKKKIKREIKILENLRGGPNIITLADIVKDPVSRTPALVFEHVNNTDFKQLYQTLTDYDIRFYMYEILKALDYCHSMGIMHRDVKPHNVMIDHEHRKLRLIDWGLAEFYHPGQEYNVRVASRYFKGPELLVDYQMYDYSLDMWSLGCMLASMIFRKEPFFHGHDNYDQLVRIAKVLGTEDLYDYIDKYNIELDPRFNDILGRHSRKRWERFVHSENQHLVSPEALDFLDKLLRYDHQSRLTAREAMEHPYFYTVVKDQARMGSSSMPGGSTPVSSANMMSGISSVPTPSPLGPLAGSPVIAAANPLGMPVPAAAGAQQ
CK2A1 (CK2α/β), sequence (P67870 whole entry partner, species assumed): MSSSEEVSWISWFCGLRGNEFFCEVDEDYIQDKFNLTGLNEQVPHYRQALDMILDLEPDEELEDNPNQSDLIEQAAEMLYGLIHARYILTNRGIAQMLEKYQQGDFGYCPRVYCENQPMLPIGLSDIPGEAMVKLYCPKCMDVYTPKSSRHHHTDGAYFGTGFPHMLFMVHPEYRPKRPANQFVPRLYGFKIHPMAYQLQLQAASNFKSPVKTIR
Turning to `CC(c1cc(C#N)cc(Nc2nc(NC3CC3)c3ncc(C#N)n3n2)c1Cl)N1CCNC(=O)C1` (racemic) [Example 679, (+/−)-2-((2-chloro-5-cyano-3-(1-(3-oxopiperazin-1-yl)ethyl)phenyl)amino)-4-(cyclopropylamino)imidazo[2,1-f][1,2,4]triazine-7-carbonitrile], the IC50 turned out to be 1.22 nM.
The result for `N#Cc1cc(Nc2nc(NC3CC3)c3ncc(C#N)n3n2)c(Cl)c(C(O)C(F)(F)F)c1` (racemic) [Example 680, (+/−)-2-((2-chloro-5-cyano-3-(2,2,2-trifluoro-1-hydroxyethyl)phenyl)amino)-4-(cyclopropylamino)imidazo[2,1-f][1,2,4]triazine-7-carbonitrile] reads 3.73 nM; that for `N#Cc1cc(Nc2nc(NC3CC3)c3ncc(C#N)n3n2)c(Cl)c(C(O)CO)c1` (racemic) [Example 681, (+/−)-2-((2-chloro-5-cyano-3-(1,2-dihydroxyethyl)phenyl)amino)-4-(cyclopropylamino)imidazo[2,1-f][1,2,4]triazine-7-carbonitrile], 0.64 nM.
Turning to `CC(O)(CO)c1cc(C#N)cc(Nc2nc(NC3CC3)c3ncc(C#N)n3n2)c1Cl` (racemic) [Example 682, (+/−)-2-((2-chloro-5-cyano-3-(1,2-dihydroxypropan-2-yl)phenyl)amino)-4-(cyclopropylamino)imidazo[2,1-f][1,2,4]triazine-7-carbonitrile], the IC50 was 0.32 nM.
For the compound `CN1CCOC(c2cc(C#N)cc(Nc3nc(NC4CC4)c4ncc(C#N)n4n3)c2Cl)C1` (racemic) [Example 694, (+/−)-2-((2-chloro-5-cyano-3-(4-methylmorpholin-2-yl)phenyl)amino)-4-(cyclopropylamino)imidazo[2,1-f][1,2,4]triazine-7-carbonitrile], the IC50 was determined as 1.48 nM.
In the case of `CC(=O)N1CCOC(c2cc(C#N)cc(Nc3nc(NC4CC4)c4ncc(C#N)n4n3)c2Cl)C1` (racemic) [Example 695, (+/−)-2-((3-(4-acetylmorpholin-2-yl)-2-chloro-5-cyanophenyl)amino)-4-(cyclopropylamino)imidazo[2,1-f][1,2,4]triazine-7-carbonitrile], the IC50 was 3.7 nM.
Consider `N#Cc1cc(CN2CCNC(C(F)(F)F)C2)c(Cl)c(Nc2nc(NC3CC3)c3ncc(C#N)n3n2)c1` (racemic) [Example 696, (+/−)-2-((2-chloro-5-cyano-3-((3-(trifluoromethyl)piperazin-1-yl)methyl)phenyl)amino)-4-(cyclopropylamino)imidazo[2,1-f][1,2,4]triazine-7-carbonitrile], for which the IC50 came out at 1.48 nM.
For the compound `N#Cc1cc(Nc2nc(NC3CC3)c3ncc(C#N)n3n2)c(Cl)c(N2CCOC(CO)C2)c1` (racemic) [Example 697, (+/−)-2-((2-chloro-5-cyano-3-(2-(hydroxymethyl)morpholino)phenyl)amino)-4-(cyclopropylamino)imidazo[2,1-f][1,2,4]triazine-7-carbonitrile], the IC50 was 0.2 nM.
In the case of `CN1CCN(c2cc(C#N)cc(Nc3nc(NC4CC4)c4ncc(C#N)n4n3)c2Cl)CC1CO` (racemic) [Example 698, (+/−)-2-({2-chloro-5-cyano-3-[3-(hydroxymethyl)-4-methylpiperazin-1-yl]phenyl}amino)-4-(cyclopropylamino)imidazo[2,1-f][1,2,4]triazine-7-carbonitrile], the IC50 worked out at 1.36 nM.
Regarding `CCNC(=O)OCC1CN(c2cc(C#N)cc(Nc3nc(NC4CC4)c4ncc(C#N)n4n3)c2Cl)CCO1` (racemic) [Example 699, (+/−)-(4-(2-chloro-5-cyano-3-((7-cyano-4-(cyclopropylamino)imidazo[2,1-f][1,2,4]triazin-2-yl)amino)phenyl)morpholin-2-yl)methyl ethylcarbamate], the IC50 came to 0.97 nM.
Turning to `CS(=O)(=O)NCC1CN(c2cc(C#N)cc(Nc3nc(NC4CC4)c4ncc(C#N)n4n3)c2Cl)CCO1` (racemic) [Example 700, (+/−)-N-((4-(2-chloro-5-cyano-3-((7-cyano-4-(cyclopropylamino)imidazo[2,1-f][1,2,4]triazin-2-yl)amino)phenyl)morpholin-2-yl)methyl)methanesulfonamide], the IC50 worked out at 0.57 nM.
Next, `N#Cc1cc(Nc2nc(NC3CC3)c3ncc(C#N)n3n2)c(Cl)c(C2CCCC(N3CCOCC3)C2)c1` (racemic) [Example 725, (+/−) cis and trans-2-((2-chloro-5-cyano-3-(3-morpholinocyclohexyl)phenyl)amino)-4-(cyclopropylamino)imidazo[2,1-f][1,2,4]triazine-7-carbonitrile]: 1.39 nM.
Take `N#Cc1cc(CCC2CNCCO2)c(Cl)c(Nc2nc(NC3CC3)c3ncc(C#N)n3n2)c1` (racemic) [Example 739, (+/−)-2-((2-chloro-5-cyano-3-(2-(morpholin-2-yl)ethyl)phenyl)amino)-4-(cyclopropylamino) imidazo[2,1-f][1,2,4]triazine-7-carbonitrile]: the IC50 came out at 0.45 nM.
Regarding `CCNc1nc(Nc2cc(C#N)cc(N3CC[C@@H](N4CC(O)C4)[C@H](O)C3)c2Cl)nn2c(C#N)cnc12` (racemic) [Example 776, (+/−)-2-((2-chloro-5-cyano-3-((3R,4R)-3-hydroxy-4-(3-hydroxyazetidin-1-yl)piperidin-1-yl)phenyl)amino)-4-(ethylamino)imidazo[2,1-f][1,2,4]triazine-7-carbonitrile], the IC50 amounted to 1.2 nM.
Turning to `N#Cc1cc(Nc2nc(NC3CC3)c3ncc(C#N)n3n2)c(Cl)c(N2C[C@@H]3CCCN[C@@H]3C2)c1` (racemic) [Example 777, (+/−)-2-((2-chloro-5-cyano-3-((4aS,7aS)-hexahydro-1H-pyrrolo[3,4-b]pyridin-6(2H)-yl)phenyl)amino)-4-(cyclopropylamino)imidazo[2,1-f][1,2,4]triazine-7-carbonitrile], the IC50 came out at 0.64 nM.
In the case of `CN1CCC2(CCN(c3cc(C#N)cc(Nc4nc(NC5CC5)c5ncc(C#N)n5n4)c3Cl)CC2)C1=O` (racemic) [Example 779, (+/−)-2-((2-chloro-5-cyano-3-(2-methyl-1-oxo-2,8-diazaspiro[4.5]decan-8-yl)phenyl)amino)-4-(cyclopropylamino)imidazo[2,1-f][1,2,4]triazine-7-carbonitrile], the IC50 amounted to 0.63 nM.
As to `CCNc1nc(Nc2cc(C#N)cc(N3CCC4(CC3)CN(C)C(=O)O4)c2Cl)nn2c(C#N)cnc12` (racemic) [Example 781, (+/−)-2-((2-chloro-5-cyano-3-(3-methyl-2-oxo-1-oxa-3,8-diazaspiro[4.5]decan-8-yl)phenyl)amino)-4-(ethylamino)imidazo[2,1-f][1,2,4]triazine-7-carbonitrile], the IC50 worked out at 0.71 nM.
The result for `CN1CC2(CCN(c3cc(C#N)cc(Nc4nc(NC5CC5)c5ncc(C#N)n5n4)c3Cl)CC2)CC1=O` (racemic) [Example 782, (+/−)-2-((2-chloro-5-cyano-3-(2-methyl-3-oxo-2,8-diazaspiro[4.5]decan-8-yl)phenyl)amino)-4-(cyclopropylamino)imidazo[2,1-f][1,2,4]triazine-7-carbonitrile] reads 0.58 nM.
Next, `CCNc1nc(Nc2cc(C#N)cc(N3CCC4(CC3)CC(=O)N(C)C4)c2Cl)nn2c(C#N)cnc12` (racemic) [Example 783, (+/−)-2-((2-chloro-5-cyano-3-(2-methyl-3-oxo-2,8-diazaspiro[4.5]decan-8-yl)phenyl)amino)-4-(ethylamino)imidazo[2,1-f][1,2,4]triazine-7-carbonitrile]: 3.76 nM.
Consider `CCNc1nc(Nc2cc(C#N)cc(N3CCC4(CCN(C)C4=O)CC3)c2Cl)nn2c(C#N)cnc12` (racemic) [Example 784, (+/−)-2-((2-chloro-5-cyano-3-(2-methyl-1-oxo-2,8-diazaspiro[4.5]decan-8-yl)phenyl)amino)-4-(ethylamino)imidazo[2,1-f][1,2,4]triazine-7-carbonitrile], for which the IC50 was determined as 1.88 nM.
Next, `CN1C(=O)CNC12CCN(c1cc(C#N)cc(Nc3nc(NC4CC4)c4ncc(C#N)n4n3)c1Cl)CC2` (racemic) [Example 785, (+/−)-2-((2-chloro-5-cyano-3-(1-methyl-2-oxo-1,4,8-triazaspiro[4.5]decan-8-yl)phenyl)amino)-4-(cyclopropylamino)imidazo[2,1-f][1,2,4]triazine-7-carbonitrile]: 6.67 nM; `N#Cc1cc(Nc2nc(NC3CC3)c3ncc(C#N)n3n2)c(Cl)c(N2CCN3C(CCS3(=O)=O)C2)c1` (racemic) [Example 788, (+/−)-2-((2-chloro-5-cyano-3-(1,1-dioxidotetrahydro-2H-isothiazolo[2,3-a]pyrazin-5 (3H)-yl)phenyl)amino)-4-(cyclopropylamino)imidazo[2,1-f][1,2,4]triazine-7-carbonitrile]: 0.62 nM.
The result for `N#Cc1cc(Nc2nc(NC3CC3)c3ncc(C#N)n3n2)c(Cl)c(N2CCC3(CC2)CN(CC(O)CF)C3)c1` (racemic) [Example 796, (+/−)-2-((2-chloro-5-cyano-3-(2-(3-fluoro-2-hydroxypropyl)-2,7-diazaspiro[3.5]nonan-7-yl)phenyl)amino)-4-(cyclopropylamino)imidazo[2,1-f][1,2,4]triazine-7-carbonitrile] reads 1.69 nM.
For the compound `CC(O)CN1CC2(CCN(c3cc(C#N)cc(Nc4nc(NC5CC5)c5ncc(C#N)n5n4)c3Cl)CC2)C1` (racemic) [Example 797, (+/−)-2-((2-chloro-5-cyano-3-(2-(2-hydroxypropyl)-2,7-diazaspiro[3.5]nonan-7-yl)phenyl)amino)-4-(cyclopropylamino)imidazo[2,1-f][1,2,4]triazine-7-carbonitrile], the IC50 is 6.61 nM.
For the compound `CC(C(N)=O)N1CC2(CCN(c3cc(C#N)cc(Nc4nc(NC5CC5)c5ncc(C#N)n5n4)c3Cl)CC2)C1` (racemic) [Example 802, (+/−)-2-(7-(2-chloro-5-cyano-3-((7-cyano-4-(cyclopropylamino)imidazo[2,1-f][1,2,4]triazin-2-yl)amino)phenyl)-2,7-diazaspiro[3.5]nonan-2-yl)propanamide], the IC50 worked out at 6.9 nM.
Next, `N#Cc1cc(Nc2nc(NC3CC3)c3ncc(C#N)n3n2)c(Cl)c(N2CC3(CCN(CC(O)CF)CC3)C2)c1` (racemic) [Example 807, (+/−)-2-((2-chloro-5-cyano-3-(7-(3-fluoro-2-hydroxypropyl)-2,7-diazaspiro[3.5]nonan-2-yl)phenyl)amino)-4-(cyclopropylamino)imidazo[2,1-f][1,2,4]triazine-7-carbonitrile]: 0.73 nM.

These data come from US9273057B2 (Bristol-Myers Squibb Company, priority 2012, dated 2016).
